Paper PMC4216214 (Journal of Medicinal Chemistry, 2014)

What was measured:
rNTS2 receptor [1] = target: T1, rNTS2 receptor (Rattus norvegicus, UniProt Q63384); test: Calcium mobilization assay for NTS2 receptor; assay type: cell-based; conditions: calcium mobilization relative to 5b
T1 sequence (Q63384 1-416): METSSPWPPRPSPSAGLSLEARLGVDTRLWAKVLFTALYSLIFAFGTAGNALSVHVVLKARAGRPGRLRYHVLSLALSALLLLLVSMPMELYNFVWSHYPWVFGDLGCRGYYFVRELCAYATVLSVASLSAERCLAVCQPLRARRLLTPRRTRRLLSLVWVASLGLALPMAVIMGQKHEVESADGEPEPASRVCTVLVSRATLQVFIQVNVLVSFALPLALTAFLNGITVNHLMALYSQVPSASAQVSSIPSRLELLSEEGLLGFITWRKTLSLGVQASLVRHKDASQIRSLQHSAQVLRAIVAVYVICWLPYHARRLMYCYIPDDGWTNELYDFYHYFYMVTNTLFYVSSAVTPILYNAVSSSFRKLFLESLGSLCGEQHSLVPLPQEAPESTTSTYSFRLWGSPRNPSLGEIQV

rNTS1 receptor = rNTS1 receptor (Rattus norvegicus, UniProt P20789); test: Calcium mobilization assay for NTS1 receptor; assay type: cell-based; conditions: for activity at NTS1: NTS1 FLIPR calcium assay
Sequence of rNTS1 receptor (P20789 whole entry): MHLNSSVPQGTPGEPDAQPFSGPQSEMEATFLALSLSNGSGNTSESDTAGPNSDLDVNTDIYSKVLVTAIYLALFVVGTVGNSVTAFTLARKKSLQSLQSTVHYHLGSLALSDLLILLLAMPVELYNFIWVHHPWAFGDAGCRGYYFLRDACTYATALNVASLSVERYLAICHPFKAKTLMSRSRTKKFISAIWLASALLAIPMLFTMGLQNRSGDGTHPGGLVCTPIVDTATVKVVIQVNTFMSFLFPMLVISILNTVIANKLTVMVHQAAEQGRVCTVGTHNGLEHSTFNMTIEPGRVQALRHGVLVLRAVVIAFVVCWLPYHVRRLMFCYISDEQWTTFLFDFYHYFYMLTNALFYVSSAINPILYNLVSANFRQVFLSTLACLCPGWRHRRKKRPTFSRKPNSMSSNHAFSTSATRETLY

rNTS2 receptor [2] = target: T1, rNTS2 receptor; test: Competitive [125I]NT whole-cell binding assay, CHO-k1 cells overexpressing rNTS2

| SMILES | NTS2 Emax (FLIPR assay) (rNTS2 receptor [1]) [% 5b] | Kb (rNTS1 receptor) [nM] | activity at NTS1 (rNTS1 receptor) | Ki (rNTS2 receptor [2]) [nM] |
| --- | --- | --- | --- | --- |
| COc1cccc(OC)c1-c1cc(C(=O)NC2(C(=O)O)C3CC4CC(C3)CC2C4)nn1-c1ccnc2cc(Cl)ccc12 (stereo not drawn) [Compound 5a] | 100 | 4.7 ± 0.8 | – | – |
| COc1cccc(OC)c1-c1cc(C(=O)NC2(C(=O)O)C3CC4CC(C3)CC2C4)nn1-c1ccc(C(=O)N(C)CCCN(C)C)cc1C(C)C (stereo not drawn) [Compound 5b] | – | 1.5 ± 0.6 | – | – |
| C[C@@H]1CN([C@H]2CC[C@](C#N)(c3ccc(F)cc3)CC2)CC[C@]1(C(=O)O)c1ccccc1 [Compound 6, levocabastine] | 16 | – | no activity at NTS1 | – |
| COc1ccccc1-c1cc(C(=O)NC2(C(=O)O)CCCCC2)nn1-c1ccc(F)cc1 [Compound 7b, 1-({[1-(4-Fluorophenyl)-5-(2-methoxyphenyl)-1H-pyrazol-3-yl]carbonyl}amino)cyclohexanecarboxylic Acid] | 7±2 | – | neither calcium nor binding activity at NTS1 | – |
| COc1cccc(OC)c1-c1cc(C(=O)NC2C3CC4CC(C3)CC2C4)nn1-c1ccnc2cc(Cl)ccc12 (stereo not drawn) [Compound 13, 1-(7-Chloroquinolin-4-yl)-5-(2,6-dimethoxyphenyl)-N-tricyclo[3.3.1.13,7]dec-2-yl-1H-pyrazole-3-carboxamide] | – | – | inactive | > 11000 |
